Data as given in patent US20250228913A1, “STABILIZED OMEGA-3 OPHTHALMIC COMPOSITIONS” (Allergan, Inc., priority 2014, published 2025).
“Also recorded” adds a separate entry of the source. Read-outs that look alike come from different tables or passages of the source.

Assays:
[1] = Physical and chemical stability monitoring of emulsion prototypes with different antioxidants and additives
Procedure: A variety of ophthalmic compositions were evaluated which contained antioxidants with the intent to prevent the degradation of the omega-3 oil components. A common problem with omega-3 oils is their propensity to degrade and become rancid over time.
Emulsion prototypes were designed using a range of excipients including different surfactants, antioxidants and aqueous additives. The physical and chemical stability of these prototype formulations were monitored over 3, 6 and/or 12 months at accelerated and/or long-term storage conditions. […] Details of these stability studies are provided in the examples herein.

[2] = Chemical stability of omega-3 oils in emulsions (FIG. 1, FIG. 2); settings: emulsions of Table 10
[3] = Physical appearance of omega-3 emulsions on storage; format: physicochemical; settings: added in the oil phase

Row | Effect of excipient on chemical stability of omega-3 oils in emulsion [2] | Effect of antioxidant or additive on stability of omega-3 oils [1] | Compound | Effect of antioxidant or additive on stability of omega-3 oils ([1]; in ophthalmic emulsions) | Effect on physical stability of omega-3 oils in emulsion [3]
1 | – | – | CC(=O)Oc1c(C)c(C)c2c(c1C)CCC(C)(CCC[C@H](C)CCC[C@H](C)CCCC(C)C)O2 (stereo partly drawn) [Vitamin E acetate] | did not show beneficial effects; also recorded: led to degradation of omega-3 oil | –
2 | worsened the chemical stability | – | Cc1c(C)c2c(c(C)c1O)CC[C@@](C)(CCC[C@H](C)CCC[C@H](C)CCCC(C)C)O2 [alpha tocopherol] | – | –
3 | – | stabilizing effect | Cc1cc(C(C)(C)C)c(O)c(C(C)(C)C)c1 [BHT, 2,6-bis(1,1-dimethylethyl)-4-methylphenol] | – | improved physical stability
4 | No significant impact | did not impact stability | CC(=O)C(=O)O [pyruvate] | – | –
5 | – | did not impact stability | OC[C@H]1O[C@H](O[C@H]2O[C@H](CO)[C@@H](O)[C@H](O)[C@H]2O)[C@H](O)[C@@H](O)[C@@H]1O [trehalose] | – | –
6 | – | not effective | vitamin E | – | –
7 | – | – | COc1ccc(O)c(C(C)(C)C)c1 [BHA, Butylated hydroxyanisole] | stabilizing effect | improved physical stability

Row | Compound | Effect of excipient on chemical stability of omega-3 oils in emulsion [2] | Effect of antioxidant or additive on stability of omega-3 oils [1] | Effect of antioxidant or additive on stability of omega-3 oils ([1]; in ophthalmic emulsions) | Effect on physical stability of omega-3 oils in emulsion [3]
8 | O=C([O-])CN(CCN(CC(=O)[O-])CC(=O)O)CC(=O)O.[Na+].[Na+] [EDTA, edetate disodium] | No significant impact | – | did not impact stability | –
